In brackets after ≈: the same amount, converted by molar mass.
Assays:
[1] = tested on: D6 and W2 P. falciparum clones; type: cell-based, Plasmodium falciparum; conditions: IC50 (W2)/IC50 (D6) ratio
[2] = tested on: Plasmodium falciparum chloroquine-resistant strain W2; test: microbe, parasite or virus in culture; type: cell-based; conditions: Plasmodium falciparum, W2, 66 h, read-out: Strain W2 IC50, growth inhibition, chloroquine-resistant strain W2, 66 h incubation
[3] = tested on: Mycobacterium tuberculosis H37Rv (ATCC 27294); test: Primary screen, Microplate Alamar Blue Assay (MABA), percent inhibition; type: cell-based; conditions: Mycobacterium tuberculosis, Table 5; Alamar assay, primary screening at 6.25 μg/ml; read-out: % Inhib
Outline: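 Single-concentration screen at 6.25 μg/ml (or molar equivalent of the heaviest congener in a series) against H37Rv grown in BACTEC 12B medium. Growth read by Microplate Alamar Blue Assay, reported as percent inhibition.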

[4] = tested on: 60 human tumor cell lines; test: DTP Human Tumor Cell Line Screen, full panel; type: cell-based; conditions: range over 60 cell lines, after 48 h, read-out: LC50 (the source's name)
Experimental: In preliminary tests, four compounds (1B14a, 1C44, 1C45, and 1C46) were chosen by NIH-NCI for in vitro screening. See Drug discovery and development program, National Cancer Institute, Bethesda, (NCI), http://dtp.nci.nih.gov. All tetraoxanes were evaluated in the 3-cell line (lung—NCI-H460, breast—MCF7, CNS-SF-268) one dose primary anticancer assay: growth percentage after 48 hours, at 100 μM concentration of tested compound. Two compounds were eliminated at this step (1B14a and 1C46), while the acid 1C44 and primary amide 1C45 were evaluated against the full panel of 60 human tumor cell lines starting with 10^−4 M concentration of investigated compounds.
The activity of numerous compounds of the present invention against various cancer cell lines was submitted to the Developmental Therapeutics Program (DTP) at the National Cancer Institute (NCI) of the National Institutes of Health (NIH) for screening.
The DTP Human Tumor Cell Line Screen utilizes 60 different human tumor cell lines, representing leukemia, melanoma and cancers of the lung, colon, brain, ovary, breast, prostate, and kidney according to conventional methods known in the art. […]

M. tuberculosis H37Rv = test: Minimum inhibitory concentration (MIC) in the MABA; type: cell-based, Mycobacterium tuberculosis; conditions: Mycobacterium tuberculosis, H37RV, Table 5; Alamar assay, M. tuberculosis H37Rv; read-out: MIC
Outline: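 Run under the NIAID TAACF screening program against M. tuberculosis by fluorescence read-out. MIC taken as the lowest concentration giving 90% reduction in fluorescence relative to controls.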

[5] = tested on: Plasmodium falciparum chloroquine-susceptible strain D6; test: In vitro antimalarial drug susceptibility assay (radiolabeled hypoxanthine incorporation), strain D6; type: cell-based; conditions: Plasmodium falciparum, D6, 66 h, read-out: Strain D6 IC50, growth inhibition, chloroquine-susceptible strain D6, 66 h incubation
[6] = tested on: red blood cell (RBC) membrane; test: Hemolytic activity test; conditions: initial experiments
[7] = tested on: standard panel of 12 tumor cell lines in hollow fibers (IP and SC implants); test: Hollow Fiber Assay; type: in vivo, mice
Experimental: Generally, as a preliminary in vivo screening tool, the following assay is conducted. A standard panel of 12 tumor cell lines were used for the routine hollow fiber screening of the in vitro activities. These include NCI-H23, NCI-H522, MDA-MB-231, MDA-MB-435, SW-620, COLO 205, LOX, UACC-62, OVCAR-3, OVCAR-5, U251 and SF-295 according to conventional methods known in the art. See e.g. Hollingshead, M., et al. (1995) Life Sciences 57:131-141, which is herein incorporated by reference. The cell lines are cultivated in RPMI-1640 containing 10% FBS and 2 mM glutamine. On the day preceeding hollow fiber preparation, the cells are given a supplementation of fresh medium to maintain log phase growth. […] On the day of implantation, samples of each tumor cell line preparation are quantitated for viable cell mass by a stable endpoint MTT assay so that the time zero cell mass is known. […] The optical density of each sample is determined spectrophotometrically at 540 nm and the mean of each treatment group is calculated. The percent net growth for each cell line in each treatment group is calculated and compared to the percent net growth in the vehicle treated controls.
A 50% or greater reduction in percent net growth in the treated samples compared to the vehicle control samples is considered a positive result. […] A compound is referred for xenograft testing if it has a combined IP+SC score of 20 or greater, a SC score of 8 or greater, or produces cell kill of any cell line at either dose level evaluated.

SMILES | Resistance Index [1] | IC50 [2] [ng/mL] | inhibition at 6.25 µg/mL [3] [%] | CC50 [4] [µM] | MIC (M. tuberculosis H37Rv) [µg/mL] | IC50 [5] [µg/mL] | red blood cell (RBC) membrane lysis [6] | Total Score ([7]; combined IP+SC, maximum possible 96) | IP score ([7]; intraperitoneal implants, agent by intraperitoneal injection at 2 dose levels, daily for 4 days) | SC score ([7]; subcutaneous implants)
COC(=O)CCC(C)[C@H]1CCC2C3C(C[C@H](OC(C)=O)[C@@]21C)[C@@]1(C)CCC2(C[C@H]1C[C@H]3OC(C)=O)OOC1(CCCCCCC1)OO2 (stereo partly drawn) [8c/1B11, Methyl 7α,12α-diacetoxy-5β-cholan-24-oate-3-spiro-6′-(1′,2′,4′,5′-tetraoxacyclohexane)-3′-spirocyclooctane] | 0.41 | 13.3 (≈ 0.02 µM) | 0 | > 100 | > 6.25 | 0.0321 (≈ 0.0484 µM) |  |  |  | 
CCCNC(=O)CCC(C)[C@H]1CCC2C3C(C[C@H](OC(C)=O)[C@@]21C)[C@@]1(C)CCC2(C[C@H]1C[C@H]3OC(C)=O)OOC1(CCCCC1)OO2 (stereo partly drawn) [11/1C20, N-(n-Propyl)-7α,12α-diacetoxy-5β-cholan-24-amide-3-spiro-6′-(1′,2′,4′,5′-tetraoxacyclohexane)-3′-spirocyclohexane] | 0.46 | 4.5 (≈ 0.0068 µM) | 88 |  | > 6.25 | 0.00977 (≈ 0.0148 µM) | no red blood cell (RBC) membrane lysis | 20 | 18 | 2
